Source: patent US12630536B2, “Cyanotriazine derivative, preparation method therefor, and application thereof” (Chengdu Fanxi Biopharma Co., LTD., priority 2020, dated 2026)
pEC50: −log10 of the molar value. Read-outs that look alike come from different tables or passages of the source.

Columns and labels:
[1] = molecular target: T1, THR-α ligand-binding domain (H6-THR-α) (Homo sapiens, UniProt P10827); experiment: Co-activated peptide recruitment test of THR-α/RXR/GRIP1 (TR_LBD agonist detection, HTRF); format: biochemical; conditions: for pEC50: Detection of TR_LBD agonist, read-out: TR_α_EC50; for Maximum activity ratio (A520/A495) / Measurement of cpd/T3 (maximum ratio): TR_LBD agonist, TR_α; for Measurement of cpd/T3 (maximum ratio): maximum relative to T3
T1 construct: made in house; host or cells: Escherichia coli BL21 (DE3), vector pET28a
T1 sequence (P10827 148-410 isoform P10827-2 limits assumed): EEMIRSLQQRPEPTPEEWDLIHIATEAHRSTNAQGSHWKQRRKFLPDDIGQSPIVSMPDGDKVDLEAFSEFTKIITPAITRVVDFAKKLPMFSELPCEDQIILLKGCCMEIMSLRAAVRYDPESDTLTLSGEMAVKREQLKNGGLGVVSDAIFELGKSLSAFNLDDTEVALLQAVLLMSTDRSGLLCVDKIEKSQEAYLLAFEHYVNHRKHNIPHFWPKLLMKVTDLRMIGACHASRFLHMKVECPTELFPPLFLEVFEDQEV
T1 sequence (P19793 225-462 partner limits assumed): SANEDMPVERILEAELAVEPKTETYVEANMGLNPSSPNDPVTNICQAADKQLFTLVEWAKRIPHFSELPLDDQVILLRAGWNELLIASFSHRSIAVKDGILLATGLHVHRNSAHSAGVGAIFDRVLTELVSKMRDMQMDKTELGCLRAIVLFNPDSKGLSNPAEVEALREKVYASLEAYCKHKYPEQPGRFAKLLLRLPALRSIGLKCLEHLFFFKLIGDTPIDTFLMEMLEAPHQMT
T1 sequence (Q15596 679-703 partner limits assumed): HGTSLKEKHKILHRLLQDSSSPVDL
Protocol: (§1) A ligand binding domain of THR-β (amino acids 148-410) (H6-THR-β) and a ligand binding domain of THR-α (amino acids 202-461) (H6-TRα) were cloned into E. coli expression vector pET28a (Novagen, Milwaukee, Wis.) containing N-terminal six His sequences. The resulting recombinant six-His-tagged protein was produced in E. coli BL21(DE3) cells. The cells were grown in Terrific Broth (self-used self-prepared Bacto tryptone (3.3%, w/v), Difico yeast extract (2.0%, w/v) and NaCl (0.5%, w/v) medium), incubated at 25° C. for 24 hours using a shake flask in 0.2 mM IPTG, harvested or dissolved with 5 volumes of buffer A (0.05 M Tris, 0.3 M NaCl, 1% W/V betaine, 0.01 M imidazole, 0.02 M b-mercaptoethanol, pH 8.0). Lysozyme (1.0 mg/ml, Sigma) and CompleteProtease Inhibitor Cocktail (Roche Diagnostics Gmbh) were added to the slurry and the solution was sonicated for one minute and 5 times at 4° C. The suspension was centrifuged at 127,300 RCF for 2 hours in a Ti45 Beckmann rotor and the supernatant was loaded onto an NI NTAAgarose (Quigen 30210) column. After washing with the buffer A, […] or H6-THR-α was eluted with the buffer A containing 0.25 M imidazole.
(§2) 30 microliters of H6-THR-β (50 nM) or H6-THR-α in 50 mM Hepes, pH 7.0, 1 mM DTT, 0.05% NP40 and 0.2 mg/ml BSA (binding buffer) were mixed with an equal volume of EE-RxRα (50 nM) in the binding buffer. […] Aliquot ([…]) was transferred to a 384-well black microtiter plate. HTRF signal was read on a Victor5 reader (PerkinElmer Life and Analytical Sciences). EC50 was calculated.
(§3) Gene clones expressing a ligand-binding domain (amino acids 148-410) of THR-β (H6-THR-β) and a ligand-binding domain (amino acids 202-461) of THR-α (H6-THR-α) were inserted into an Escherichia coli expression vector pET28a, and the expression vector contained one N-terminal 6-His sequence. The expression vector was introduced into an Escherichia coli BL21 (DE3) strain to produce a recombinant protein with a His tag. […] After finishing culturing, a bacterium in culture was collected, and the collected bacterium was resuspended with a lysis solution (0.05 M Tris, 0.3 M NaCl, 1% W/V betaine, 0.01 M imidazole, 0.02 M β-mercaptoethanol, and pH 8.0) with a volume 5 times that of the bacterium, and lysozyme and protease inhibitors were added at the same time, the treated bacteria was subjected to ultrasonic lysis (5 times per minute) in ice bath (4° C.). A lysed suspension was centrifuged at 127300 RCF for 2 hours, a supernatant was loaded on a NI_NTA agarose (Quigen 30210) column, and after washing with a buffer A, an H6-TRβ or H6-TRα protein was eluted with the buffer A containing 0.25 M imidazole.
(§4) A human retinol X receptor (amino acid 225-462) (RxRα) was subjected to engineering modification, so that an N-terminal of the human retinol X receptor had His6 and EE(EFMPME) tags, and then the human retinol X receptor was cloned into a pACYC vector, and produced a His6 EEtagged protein in Escherichia coli. IPTG with a final concentration of 0.1 mM was added into the culture medium for induction, and cultured in a shaking flask at 18° C. for 18 hours. After finishing culturing, a bacterium in culture was collected, and the collected bacterium was re-suspended with a lysis solution (0.05 M Tris, 0.3 M NaCl, 1% W/V betaine, 0.01 M imidazole, 0.02 β-mercaptoethanol, and pH 8.0) with a volume 5 times that of the bacterium, lysozyme and protease inhibitors were added at the same time, and stirred at 4° C. for 30 minutes. Then, a suspension was subjected to an ultrasonic treatment at 4° C. for 30 seconds for 5 times. The suspension was collected, and centrifuged at 12000 RCF for 20 minutes. A supernatant was collected, and the supernatant was filtered with a membrane with a pore size of 0.45 μm, and then added with 0.5% NP-40.

[2] = molecular target: T2, THR-β ligand-binding domain (H6-THR-β) (Homo sapiens, UniProt P10828); experiment: Co-activated peptide recruitment test of THR-β/RXR/GRIP1 (TR_LBD agonist detection, HTRF); format: biochemical; conditions: for pEC50: Detection of TR_LBD agonist, read-out: TR_beta_EC50; for Measurement of cpd/T3 (maximum ratio) / Maximum activity ratio (A520/A495) / α/β: TR_LBD agonist; for Measurement of cpd/T3 (maximum ratio) / Maximum activity ratio (A520/A495): TR_β; for Measurement of cpd/T3 (maximum ratio): maximum relative to T3; for α/β: ratio TR_α EC50 / TR_β EC50
T2 construct: made in house; host or cells: Escherichia coli BL21 (DE3), vector pET28a
T2 sequence (P10828 217-461 limits assumed): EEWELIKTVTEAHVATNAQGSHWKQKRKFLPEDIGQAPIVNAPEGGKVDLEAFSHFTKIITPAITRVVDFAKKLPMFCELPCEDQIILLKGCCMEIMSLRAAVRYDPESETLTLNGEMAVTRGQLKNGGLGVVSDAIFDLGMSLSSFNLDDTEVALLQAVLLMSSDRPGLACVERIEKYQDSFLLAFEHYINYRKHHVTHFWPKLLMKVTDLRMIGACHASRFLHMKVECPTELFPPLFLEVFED
T2 sequence (P19793 225-462 partner limits assumed): T1 sequence (P19793 225-462 partner limits assumed)
T2 sequence (Q15596 679-703 partner limits assumed): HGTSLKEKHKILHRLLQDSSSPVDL
Protocol: as §1, §2, §3, §4

[3] = system: TR alpha-UAS-bla HEK 293T Cells; experiment: TR cell-based agonist detection, β-lactamase reporter (LiveBLAzer FRET B/G), TR alpha; conditions: for Emax: HEK-293T, 24 h, read-out: Maximum activity ratio; for pEC50: Detection of TR_cell-based agonist, HEK 293T-TR alpha, 24 hours, read-out: TR_α_EC50
Protocol: (§5) A method for testing a THR-α/β activation activity of a compound by an in-vitro cell level was as follows.
(§6) Compounds were transferred to a 384-well plate by an ECHO liquid workstation, and each compound was diluted by 3 times with 10 gradient concentrations, which was in triplicate. 1.5×10^4 DMEM-cultured cells (TR beta-UAS-bla HEK 293T Cells) or 1.0×10^4 TR alpha-UAS-bla HEK 293T Cells were placed in the 384-well plate. HEK 293T-TR beta was incubated in an incubator for 16 hours, and HEK 293T-TR alpha was incubated in an incubator for 24 hours. A LiveBLAzer™-FRET B/G (CCF4-AM) substrate was added into the cell plate to detect expression of β-lactamase in cells, and under excitation of 409 nm, a product produced fluorescence with a wavelength of 447 nm. When the β-lactamase was not expressed, under excitation of 409 nm, fluorescence with a wavelength of 520 nm was directly produced through FRET. Combination between the compound and the protein was determined by detecting a ratio of the two kinds of fluorescence (blue/green, 460 nm/530 nm), thus calculating EC50 of the compound. […] Calculation of a factor Z (greater than 0.5) would be used for monitoring a stability of each experiment.

[4] = system: TR beta-UAS-bla HEK 293T Cells; experiment: TR cell-based agonist detection, β-lactamase reporter (LiveBLAzer FRET B/G), TR beta; conditions: for Emax: read-out: Maximum activity ratio (A460/A530); for pEC50: read-out: TR_β_EC50
Protocol: as §5, §6

[5] = Homo sapiens, TR_cell-based agonist, TR_α
[6] = Homo sapiens, HEK-293T, 16 h, TR_cell-based agonist, TR_β
[7] = Homo sapiens, Detection of TR_cell-based agonist, HEK 293T-TR beta, 16 hours

pEC50 [1]	pEC50 [2]	Measurement of cpd/T3 (maximum ratio) [2]	Maximum activity ratio (A520/A495) [1]	Measurement of cpd/T3 (maximum ratio) [1]	Maximum activity ratio (A520/A495) [2]	α/β [2]	Structure (SMILES)	Emax [3, 5]	pEC50 ([3]; Homo sapiens)	Emax [4, 6]	pEC50 [4, 7]	pEC50 [3]	Maximum activity ratio ([3]; TR_cell-based agonist, TR_α)	pEC50 ([4]; Detection of TR_cell-based agonist, HEK 293T-TR beta, 16 hours)	Maximum activity ratio (A460/A530) ([4]; TR_cell-based agonist, TR_β)	Test cpd/T3 (maximum ratio) ([3]; TR_cell-based agonist, TR_α, maximum relative to T3)	Measurement of cpd/T3 (maximum ratio) ([4]; TR_cell-based agonist, TR_β, maximum relative to T3)	α/β ([4]; TR_cell-based agonist, ratio TR_α EC50 / TR_β EC50)	pEC50 ([4]; Homo sapiens, HEK-293T, 16 h)
< 5.30	6.81	22.1%	–	–	–	–	Cn1cnc2cc(Oc3c(Cl)cc(-n4nc(C#N)c(=O)[nH]c4=O)cc3Cl)ccc21 [Compound 2, 2-(3,5-dichloro-4-((1-methyl-1H-benzo[d]imidazol-5-yl)oxy)phenyl)-3,5-dioxo-2,3,4,5-tetrahydro-1,2,4-triazine-6-carbonitrile]	35%	< 4.70	14.5%	< 4.70	–	–	–	–	–	–	–	–
6.24	7.29	26.6%	1.59	29.5%	1.46	11.25	Cn1cnc2cc(Oc3c(Br)cc(-n4nc(C#N)c(=O)[nH]c4=O)cc3Br)ccc21 [Compound 4, 2-(3,5-dibromo-4-((1-methyl-1H-benzo[d]imidazol-5-yl)oxy)phenyl)-3,5-dioxo-2,3,4,5-tetrahydro-1,2,4-triazine-6-carbonitrile]	40%	< 4.70	16.6%	< 4.70	–	–	–	–	–	–	–	–
5.88	7.34	49.1%	2.45	45.5%	2.69	28.81	N#Cc1nn(-c2cc(Cl)c(Oc3ccc4ncn(CCN5CCCC5)c4c3)c(Cl)c2)c(=O)[nH]c1=O [Compound 5]	–	–	–	–	< 4.70	0.42	< 4.70	0.134	–	–	–	–
–	< 5.30	–	–	–	–	–	N#Cc1nn(-c2cc(Cl)c(Oc3ccc4ncn(C5CCNC5)c4c3)c(Cl)c2)c(=O)[nH]c1=O (stereo not drawn) [Compound 6]	–	–	–	–	–	–	–	–	–	–	–	–
< 5.30	7.87	22.6%	–	–	–	–	N#Cc1nn(-c2cc(Cl)c(Oc3ccc4ncn(C5CCN(Cc6ccccc6)C5)c4c3)c(Cl)c2)c(=O)[nH]c1=O (stereo not drawn) [Compound 7, 2-(4-((1-(1-benzylpyrrolidin-3-yl)-1H-benzo[d]imidazol-6-yl)oxy)-3,5-dichlorophenyl)-3,5-dioxo-2,3,4,5-tetrahydro-1,2,4-triazine-6-carbonitrile]	19%	< 4.70	11.6%	< 4.70	–	–	–	–	–	–	–	–
7.26	8.26	54.0%	2.32	43.0%	2.96	10.04	N#Cc1nn(-c2cc(Cl)c(Oc3ccc4ncn(C5CCCC5)c4c3)c(Cl)c2)c(=O)[nH]c1=O [Compound 8, 2-(3,5-dichloro-4-((1-cyclopen-tyl-1H-benzo[d]imidazol-6-yl)oxy)phenyl)-3,5-dioxo-2,3,4,5-tetrahydro-1,2,4-triazine-6-carbonitrile]	72%	5.66	33.9%	6.23	–	–	–	–	32.7%	6.2%	3.69	–
< 5.30	7.83	33.6%	1.39	–	1.84	>337.84	Cn1c(CCc2ccccc2)nc2cc(Oc3c(Cl)cc(-n4nc(C#N)c(=O)[nH]c4=O)cc3Cl)ccc21 [Compound 9, 2-(3,5-dichloro-4-((1-methyl-2-phenethyl-1H-benzo[d]imidazol-5-yl)oxy)phenyl)-3,5-dioxo-2,3,4,5-tetrahydro-1,2,4-triazine-6-carbonitrile]	31%	< 4.70	20.4%	< 4.70	–	–	–	–	–	–	–	–
–	–	–	–	–	–	–	N[C@@H](Cc1cc(I)c(Oc2ccc(O)c(I)c2)c(I)c1)C(=O)O [Compound T3, 3,5,3′-tri-iodine-L-thyronine, reference compound]	–	10.26	–	–	–	–	–	–	–	–	–	9.49
